Where “and” joins values, the source holds several entries; their conditions need not be identical. Equal values may be shown once.
Columns and labels:
Cif [1] = target: T1, Cif (Pseudomonas aeruginosa, UniProt A0A0H2ZD27); experiment: Competitive or displacement sandwich ELISA (dsELISA) with Nb 219; assay type: binding
T1 construct: made in house
Experimental: 2). Competitive or Displacement Sandwich assay. A 96-well plate was coated with pAb at 3 μg/mL, 100 μL per well at RT for 1 h. The plate was blocked with 1% skimmed milk in PBST at RT for at least 2 h. Cif in PBS was loaded at 20 ng/mL, 100 μL/well and incubated for 1 h at RT. Following 5 times wash with PBST, a serial dilution of small molecule synthetic inhibitors in PBS containing 20% methanol at 50 μL/well was loaded, followed by 50 μL/well of VHH at 0.1 μg/mL (or 5 ng/well) in PBS and incubated for 1 h at RT. Mouse anti-HA-HRP conjugate was added at 100 μl/well in a 1:3000 dilution as instructed by manufacturer. The plate was incubated for 1h at RT and washed 5 times. The plate was developed for 10 min with substrate solution added at 100 μl/well. The reaction was stopped by addition of 2M H2SO4 (50 μl/well) and absorbance was read at 450 nm. SigmaPlot 11.0 software was used for curve fitting and data analysis.
Development of nanobody-based screening assay. […] In this assay, the plate was coated with polyclonal anti-Cif antibody (pAb) that captured Cif-protein. Inhibitory anti-Cif Nb in role of a reporter was added at constant concentration together with a serial dilution of a tested inhibitor. […] In this assay, the amount of anti-Cif pAb loaded in the plate was optimized first. […] Second, the amount of Cif-protein captured on pAb was optimized. […] Both nanobodies 113 and 219 were evaluated in the inhibitory assay.

Cif [2] = target: T1, Cif; experiment: biochemical; conditions: Fluorescent assay IC50, Table 7, small molecule inhibitors
Experimental: Fluorescent-based Cif Inhibitory assay. Activity of enzyme was measured using a sensitive fluorescent-based assay similar to the method previously described for other EHs (29,30). Cyano(6-methoxynaphthalen-2-yl)methyl glycidyl carbonate (CMNGC) was used as a fluorescent reporter substrate. […] A schematic of the assay is depicted in FIG. 1.
Reported IC50 values are the average of triplicates with at least two data points above and at least two below the IC50. […] Control experiments without Cif (inhibitor/VHH and substrate) were used to evaluate the intrinsic fluorescence of inhibitors.

Cif [3] = target: T1, Cif; experiment: Octet bio-layer interferometry; assay type: binding; conditions: steady state analysis, 30° C.
Experimental: Octet Bio-Layer Interferometry: KD of Cif and their inhibitors was determined by Bio-Layer Interferometry using an Octet Red instrument (ForteBio). Recombinant Cif-His was prepared as described previously (20,29). Stocks of purified proteins were stored at 4° C. until used.

T1 sequence (A0A0H2ZD27 25-319 limits assumed): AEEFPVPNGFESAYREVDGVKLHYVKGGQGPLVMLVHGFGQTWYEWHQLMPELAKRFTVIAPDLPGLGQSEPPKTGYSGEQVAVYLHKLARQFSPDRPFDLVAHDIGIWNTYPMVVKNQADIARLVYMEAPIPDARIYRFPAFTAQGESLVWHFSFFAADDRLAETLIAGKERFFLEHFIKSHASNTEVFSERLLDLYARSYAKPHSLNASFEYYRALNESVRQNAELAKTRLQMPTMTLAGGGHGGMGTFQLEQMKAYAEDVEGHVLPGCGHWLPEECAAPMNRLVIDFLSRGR

| SMILES | EC50 (Cif [1]) [nM] | IC50 (Cif [2]) | Kd (Cif [3]) | fold more potent than 8c (Cif [1]; nanobody-based inhibitory sandwich ELISA) [fold] |
| --- | --- | --- | --- | --- |
| O=C(O)CC(=O)Nc1cc(Cl)c(Oc2ccc(O)cc2)c(Cl)c1 [Compound 1, 3-((3,5-dichloro-4-(4-hydroxyphenoxy)phenyl)amino)-3-oxopropanoic acid, reference compound] | > 200000 | > 50000 nM |  |  |
| NC(=O)c1ccc(-c2cc(Oc3c(Cl)cc(N)cc3Cl)ccc2O)cc1 [Compound 7, 5′-(4-amino-2,6-dichlorophenoxy)-2′-hydroxy-[1,1′-biphenyl]-4-carboxamide] | 700 | ~500 nM and 550 nM | 900 nM |  |
| CCC(=O)Nc1cc(Cl)c(Oc2ccc(O)c(-c3ccc(C(N)=O)c(F)c3)c2)c(Cl)c1 [Compound 8, 5′-(2,6-dichloro-4-propionamidophenoxy)-3-fluoro-2′-hydroxy-[1,1′-biphenyl]-4-carboxamide] | 200 | ~500 nM and 470 nM | 160 nM and 200 nM | 1 |

From patent US12006355B2, “Nanobodies against cystic fibrosis transmembrane conductance regulator (CFTR) inhibitory factor (Cif)” (priority 2017, dated 2024)
